According to patent US20050075382A1, “N-Aryl-2-cyanooxazolidinones and their derivatives” (priority 2003, published 2005):
Converted amounts (≈) assume the structure as drawn.

Tested on: Staphylococcus aureus (SAUR 9213)
Assay: MIC by standard agar dilution method
Assay type: cell-based
Conditions: Mueller Hinton agar, overnight at 35° C.
Description: The antibacterial agents of this invention have useful activity against a variety of organisms. The in vitro activity of compounds of this invention can be assessed by standard testing procedures such as the determination of minimum inhibitory concentration (MIC) by agar dilution as described in “Approved Standard. Methods for Dilution Antimicrobial Susceptibility Tests for Bacteria That Grow Aerobically”, 3rd. ed., published 1993 by the National Committee for Clinical Laboratory Standards, Villanova, Pa., USA. The in vitro MICs of test compounds are determined by a standard agar dilution method. A stock drug solution of each analog is prepared in the preferred solvent, usually DMSO:H2O (1:3). Serial 2-fold dilutions of each sample are made using 1.0 ml aliquots of sterile distilled water. To each 1.0 ml aliquot of drug is added 9 ml of molten Mueller Hinton agar medium. The drug-supplemented agar is mixed, poured into 15×100 mm petri dishes, and allowed to solidify and dry prior to inoculation. Vials of each of the test organisms are maintained frozen in the vapor phase of a liquid nitrogen freezer. Test cultures are grown overnight at 35° C. on the medium appropriate for the organism. Colonies are harvested with a sterile swab, and cell suspensions are prepared in Trypticase Soy broth (TSB) to equal the turbidity of a 0.5 McFarland standard. A 1:20 dilution of each suspension is made in TSB. The plates containing the drug supplemented agar are inoculated with a 0.001 ml drop of the cell suspension using a Steers replicator, yielding approximately 10^4 to 10^5 cells per spot. The plates are incubated overnight at 35° C. Following incubation the Minimum Inhibitory Concentration (MIC μg/ml), the lowest concentration of drug that inhibits visible growth of the organism, is read and recorded.

MIC [µg/mL] | SMILES
0.5 (≈ 1.77 µM) | N#C[C@H]1CN(c2ccc(-c3ccncc3)c(F)c2)C(=O)O1 [Example 5, (5R)-3-(3-fluoro-4-pyridin-4-ylphenyl)-2-oxo-1,3-oxazolidine-5-carbonitrile]
1 (≈ 2.96 µM) | N#C[C@H]1CN(c2ccc(C3CCS(=O)(=O)CC3)c(F)c2)C(=O)O1 [Example 1, (5R)-3-[4-(1,1-dioxidotetrahydro-2H-thiopyran-4-yl)-3-fluorophenyl]-2-oxo-1,3-oxazolidine-5-carbonitrile]
2 (≈ 5.6 µM) | N#C[C@H]1CN(c2cc(F)c(N3CCS(=O)(=O)CC3)c(F)c2)C(=O)O1 [Example 3, (5R)-3-[4-(1,1-dioxidothiomorpholin-4-yl)-3,5-difluorophenyl]-2-oxo-1,3-oxazolidine-5-carbonitrile]
8 (≈ 27.5 µM) | N#C[C@H]1CN(c2ccc(N3CCOCC3)c(F)c2)C(=O)O1 [Example 2, (5R)-3-(3-fluoro-4-morpholin-4-ylphenyl)-2-oxo-1,3-oxazolidine-5-carbonitrile]
4 (≈ 13.1 µM) | Cc1nnc(-c2ccc(N3C[C@H](C#N)OC3=O)cc2F)s1 [Example 4, (5R)-3-[3-fluoro-4-(5-methyl-1,3,4-thiadiazol-2-yl)phenyl]-2-oxo-1,3-oxazolidine-5-carbonitrile]
